Source: patent publication US11655477B2, “Methods for thaxtomin production and engineered non-native Streptomyces with increased thaxtomin production” (priority 2017, dated 2023)
Entries after “also recorded” stand apart in the source; their conditions may differ. Like-named read-outs stand apart in the source and are kept apart here.

Key:
[1] = system: Jurkat cells; assay: MTT assay to characterize cytotoxicity, Jurkat cells; assay type: cell-based, human; settings: for cytotoxicity toward Jurkat cell line (in words): PBS as negative control; for IC30 (30% inhibitory concentration) toward Jurkat cells: human T-cell leukemia Jurkat, MTT, 48 to 72 h
Procedure: (§1) PC-3 and Jurkat cells were cultured in DMEM or RPM11640 medium containing 10% fetal bovine serum and 100 U/mL penicillin and streptomycin, and maintained at 37° C. in a humidified incubator under 5% CO2. The cells (1×10^4 for Jurkat, and 5,000 for PC-3 in 100 μL) were seeded into 96-well plates and incubated overnight. Varying concentrations of purified compounds (0 μM, 12.5 μM, 25 μM, 50 μM and 100 μM) were added to the wells. After incubation at 37° C. for 48 to 72 h, 10 μL of MTT (5 mg/mL) in PBS was added and incubated for 4 h, followed by aspiration of the medium. DMSO (100 μL) was added to each well to dissolve the MTT in the wells, and the plates were agitated for 1 h for recording the absorbance at 570 nm using UV/vis microplate spectrophotometer (BioTek). Three to six replications were performed per treatment of each sample.

[2] = system: radish seedling; assay: Herbicidal activity assay, radish seedling growth inhibition on agar plates; assay type: in vivo; settings: for IC50: total seedling length after 6 days, percent inhibition relative to DMSO control, four-parameter logistic fit, read-out: I50 (herbicidal activity, radish seedling assay); for herbicidal activity / growth inhibition toward radish seedling (in words): DMSO as negative control
Procedure: Serial concentrations (0 to 4 μM) of thaxtomins in DMSO were added into 20 mL of 1.5% warm agar solution with gentle agitation. DMSO was included as the negative control. The solution was then poured into the plate for solidification at room temperature for 30 min. Radish seeds (Burpee) were surface disinfested, pregerminated and selected when the radicle was […] and just emerged from the seed coat. Six radish seedlings were equally located on the surface of each plate with the root ends all pointed in the same direction. Agar plates were covered, sealed with Parafilm. The seedlings in the agar plates grew at room temperature under fluorescent lighting (12 h per day for 6 days), and total seedling lengths were then recorded. Three plates were set up for each dosage of each compound. Percent inhibition relative to the mean growth response in DMSO treated control plates was then calculated. Dose-response curves were fit to a four-parameter logistic model as described in Streibig, J C, et al., 1993 (which is hereby incorporated by reference herein), and Iso values were estimated from these curves.

[3] = system: PC-3 cells; assay: MTT assay to characterize cytotoxicity, PC-3 cells; assay type: cell-based, human; settings: for cytotoxicity toward PC-3 cell line (in words): PC-3, PBS as negative control; for IC30 (30% inhibitory concentration) toward PC-3 cells: prostate cancer PC-3, MTT, 48 to 72 h
Procedure: as §1

[4] = system: cellulose biosynthesis; settings: background statement; cited from earlier work

SMILES: CN1C(=O)[C@](O)(Cc2cccc(O)c2)N(C)C(=O)[C@@H]1Cc1c[nH]c2ccc(F)c([N+](=O)[O-])c12 [Compound 9, 5-F-thaxtomin A]
- cytotoxicity toward Jurkat cell line (in words) [1]: weak cytotoxicity
- IC30 (30% inhibitory concentration) toward Jurkat cells [1]: 63.26 ± 9.29 µM
- IC50 ([2]; Raphanus sativus, 144 h): 0.56 ± 0.03 µM
- herbicidal activity / growth inhibition toward radish seedling (in words) [2]: potent herbicidal activity; also recorded: potent growth inhibition activity
- cytotoxicity toward PC-3 cell line (in words) [3]: weak cytotoxicity
- IC30 (30% inhibitory concentration) toward PC-3 cells [3]: 56.76 ± 17.12 µM

SMILES: CN1C(=O)[C@](O)(Cc2ccccc2)N(C)C(=O)[C@@H]1Cc1c[nH]c2cccc([N+](=O)[O-])c12 [Compound 3, thaxtomin B]
- cytotoxicity toward Jurkat cell line (in words) [1]: weak cytotoxicity
- IC30 (30% inhibitory concentration) toward Jurkat cells [1]: 50.92 ± 13.17 µM
- cytotoxicity toward PC-3 cell line (in words) [3]: weak cytotoxicity
- IC30 (30% inhibitory concentration) toward PC-3 cells [3]: 37.87 ± 13.46 µM

SMILES: CN1C(=O)[C@](O)(Cc2cccc(O)c2)N(C)C(=O)[C@@H]1Cc1c[nH]c2cccc([N+](=O)[O-])c12 [Compound 1, thaxtomin A, reference compound]
- cytotoxicity toward Jurkat cell line (in words) [1]: weak cytotoxicity
- IC30 (30% inhibitory concentration) toward Jurkat cells [1]: 70.84 ± 16.68 µM
- herbicidal activity / growth inhibition toward radish seedling (in words) [2]: potent growth inhibition activity
- IC50 [2]: 0.45 ± 0.05 µM
- cytotoxicity toward PC-3 cell line (in words) [3]: weak cytotoxicity
- IC30 (30% inhibitory concentration) toward PC-3 cells [3]: 80.28 ± 10.50 µM
- concentration range of inhibition of cellulose biosynthesis [4]: in the nM range

SMILES: CN1C(=O)C(O)(Cc2ccccc2O)N(C)C(=O)C1Cc1c[nH]c2cccc([N+](=O)[O-])c12 (centres unmarked) [Compound 2, ortho-thaxtomin A]
- cytotoxicity toward Jurkat cell line (in words) [1]: weak cytotoxicity
- IC30 (30% inhibitory concentration) toward Jurkat cells [1]: 56.46 ± 12.04 µM
- herbicidal activity / growth inhibition toward radish seedling (in words) [2]: potent growth inhibition activity
- IC50 [2]: 0.81 ± 0.04 µM
- cytotoxicity toward PC-3 cell line (in words) [3]: weak cytotoxicity
- IC30 (30% inhibitory concentration) toward PC-3 cells [3]: 42.38 ± 13.62 µM
